US7488834B2, “Organic semiconductors” (Alcatel-Lucent USA Inc., priority 2005, dated 2009)

Tests used:
[1] = Solubility in organic solvents; type: physicochemical
Method: Before fabricating the FETs, the solubility of the two semiconductor compositions in tetrahydrofuran (THF) was determined.

[2] = Solubility in organic solvents; type: physicochemical; remark: listed apart in the source
[3] = Viscosity of formulation or solution; type: physicochemical; conditions: c = 500 ppm, cyclohexanol/THFA/THF = 86:9:5

melting point	Structure (SMILES)	solubility in THF ([1]; THF)	further results
197 °C	CCCCC(C)COc1ccc(-c2ccc(-c3ccc(-c4ccc(OCC(C)CCCC)cc4)s3)s2)cc1 (stereo not shown) [6(2Me)-O-PTTP-O-6(2Me), 5,5′-bis(4-(2-methylhexyloxy)phenyl)-2,2′-bithiophene]	sufficiently soluble in THF(about 61,000 ppm)DSC: mp = 197 °C	–
250 °C	CC(C)CCCOc1ccc(-c2ccc(-c3ccc(-c4ccc(OCCCC(C)C)cc4)s3)s2)cc1 [5(4Me)-O-PTTP-O-5(4Me), 5,5′-bis(4-(4-methylpentyloxy)phenyl)-2,2′-bithiophene]	solubility in THF about5400 ppm. DSC: mp =250° C., smaller transitionaround 173 °C (couldbe LC)	–
148 °C	CCCCC(CC)COc1ccc(-c2ccc(-c3ccc(-c4ccc(OCC(CC)CCCC)cc4)s3)s2)cc1 (stereo not shown) [6(2Et)-O-PTTP-O-6(2Et), 5,5′-bis(4-(2-ethylhexyloxy)phenyl)-2,2′-bithiophene]	~70,000 ppm	viscosity η of formulation [3]: 22 mPas; solubility in o-xylene [2]: ~25,000 ppm

The next lines start with the compound.

Structure (SMILES)	melting point	solubility in THF ([1]; THF)	further results
CCCOCCc1ccc(-c2ccc(-c3ccc(-c4ccc(CCOCCC)cc4)s3)s2)cc1 [3O2PTTP2O3, 5,5′-Bis(4-(propxyethyl)phenyl)-2,2′-bithiophene]	–	–	solubility (in words) ([1]; compared with 6PTTP6): Solubility like6PTTP6
CC(C)(C)[Si](OCCCCCCOc1ccc(-c2ccc(-c3ccc(-c4ccc(OCCCCCCO[Si](c5ccccc5)(c5ccccc5)C(C)(C)C)cc4)s3)s2)cc1)(c1ccccc1)c1ccccc1 [6(6TBDPSO)-O-PTTP-O-6(6TBDPSO), 5,5′-Bis-{4-[6-(tert-butyl-diphenyl-silanyloxy)-hexyloxy]-phenyl}-[2,2′]bithiophenyl]	–	Well soluble in THF(about 310,000 ppm);	–
CC(COc1ccc(-c2ccc(-c3ccc(-c4ccc(OCC(C)COC5CCCCO5)cc4)s3)s2)cc1)COC1CCCCO1 (stereo not shown) [3(3THPO,2Me)-O-PTTP-O-3(THPO,2Me), 5,5′-Bis-[4-(2-methyl-propoxy-tetrahydro-pyran)-phenoxy]-[2,2′]bithiophenyl]	–	Well soluble in THF(about 75,000 ppm)	–
C=CC(C=C)OC(=O)CCCCCOc1ccc(-c2ccc(-c3ccc(-c4ccc(OCCCCCC(=O)OC(C=C)C=C)cc4)s3)s2)cc1 [6-[4-(5′-[5-(1-Vinyl-allyloxycarbonyl)-pentyloxy]-phenyl}-[2,2′]bithiophenyl-5-yl)-phenoxy]-hexanoic acid 1-vinyl-allyl ester]	–	well soluble in THF(131,000 ppm)	–
CCCCCC(CC)Oc1ccc(-c2ccc(-c3ccc(-c4ccc(OC(CC)CCCCC)cc4)s3)s2)cc1 (stereo not shown) [6(1Et)-O-PTTP-O-6(1Et), 5,5′-Bis-[4-(1-ethyl-hexyloxy)-phenyl]-[2,2′]bithiophenyl]	97 to 102 °C	Well soluble in THF(about 330,000 ppm)DSC: mp = 97-102° C.,(broad transition)	–
CCC(CC)COc1ccc(-c2ccc(-c3ccc(-c4ccc(OCC(CC)CC)cc4)s3)s2)cc1 [4(2Et)-O-PTTP-O-4(2Et), 5,5′-bis(4-(2-ethylbutyloxy)phenyl)-2,2′-bithiophene]	–	solubility in THF about4,900 ppm	–
CC(C)CCCC(C)CCOc1ccc(-c2ccc(-c3ccc(-c4ccc(OCCC(C)CCCC(C)C)cc4)s3)s2)cc1 (stereo not shown) [8(3,7Me)-O-PTTP-O-8(3,7Me), 5,5′-bis(4-(3,7-dimethyloctyloxy)phenyl)-2,2′-bithiophene]	192 °C	solubility in THF about12,000 ppmDCS: mp = 192° C., smallertransition at 143° C.(diastereomer or LC)	–
CCCCCC(C)Oc1ccc(-c2ccc(-c3ccc(-c4ccc(OC(C)CCCCC)cc4)s3)s2)cc1 (stereo not shown) [6(1Me)-O-PTTP-O-6(1Me), 5,5′bis(4-(1-methylhexyloxy)phenyl)-2,2′-bithiophene]	143 °C	–	solubility in 2-Ethylhexanol ([2]; 2-Ethylhexanol): ~800 ppm; solubility in THF/cyclohexanol 2:8 ([2]; THF/cyclohexanol 2:8 (viscosity 9 mPas)): 4,000 ppm; solubility in o-xylene [2]: 54,000 ppm; solubility in THF relative to 7(2Me)-PTTP-7(2Me) ([1]; THF): approximately twice
CC(CO)COc1ccc(-c2ccc(-c3ccc(-c4ccc(OCC(C)CO)cc4)s3)s2)cc1 (stereo not shown) [3(3OH,2Me)-O-PTTP-O-3(3OH,2Me), 3-(4-{5′-[4-(3-Hydroxy-2-methyl-propoxy)-phenyl]-[2,2′]bithiophenyl-5-yl}-phenoxy)-2-methyl-propan-1-ol]	–	Low solubility in THF(600 ppm)	–
CCCCCCOc1ccc(-c2ccc(-c3ccc(-c4ccc(OCCCCCC)cc4)s3)s2)cc1 [6-O-PTTP-O-6, 5,5′-bis(4-hexyloxyphenyl)-2,2′-bithiophene]	243 °C	solubility in THF about600 ppm, lowest value byfar. Differential scanningcalorimetry (“DSC”);melting point = 243° C.,smaller transitions at 65,148, 176, 255, 261° C.(doastereomers or LC)	–
